Active and inactive are the calls of the source.

Assay [1] addresses Sphingosine 1-phosphate receptor 2 (Homo sapiens, UniProt O95136). Put plainly: Dose Response Cell Based Assay for Agonists of the S1P2 Receptor of Purchased Analogues. [Related pubchem assays: 729, 843, 854, 736 ]. Format: functional.
For assay [2], the target named is NADPH oxidase 1 (Homo sapiens, UniProt Q9Y5S8). Format: functional, cell-based.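 Further: Cell-based assay with luminescence read-out, IC50 derived from inhibitor dose-response curves; intracellular ROS from endogenous NOX1 in intact HT29 colon cancer cells; potency of inhibitors that lower the ROS luminescence signal.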
Chain of NADPH oxidase 1 (Q9Y5S8 whole entry): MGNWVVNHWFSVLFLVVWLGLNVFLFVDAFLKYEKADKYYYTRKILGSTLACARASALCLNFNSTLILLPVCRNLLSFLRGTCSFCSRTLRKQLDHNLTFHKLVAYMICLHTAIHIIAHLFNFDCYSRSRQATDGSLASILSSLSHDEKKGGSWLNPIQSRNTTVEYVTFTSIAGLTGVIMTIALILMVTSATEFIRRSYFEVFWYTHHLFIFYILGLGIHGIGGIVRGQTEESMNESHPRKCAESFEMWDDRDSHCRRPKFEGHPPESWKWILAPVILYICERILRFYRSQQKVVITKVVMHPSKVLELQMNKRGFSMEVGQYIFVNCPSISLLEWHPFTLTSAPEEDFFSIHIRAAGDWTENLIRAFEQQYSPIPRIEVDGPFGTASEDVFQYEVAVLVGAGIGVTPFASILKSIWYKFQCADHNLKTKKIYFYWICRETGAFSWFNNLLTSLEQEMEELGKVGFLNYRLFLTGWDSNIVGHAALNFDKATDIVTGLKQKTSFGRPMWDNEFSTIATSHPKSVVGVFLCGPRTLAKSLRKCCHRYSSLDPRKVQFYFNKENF
For assay [3], the target named is T1, E3 ubiquitin-protein ligase XIAP (Homo sapiens, UniProt P98170). In words: Counter Screen using XIAP-Bir3 for Chemical Antagonists of Bir1/2 domains of IAP-family anti-apoptotic proteins. [Related pubchem assays (depositor defined):AID1018, AID1449, AID1514, AID1638, AID1749, AID1750, AID488957, AID488963]. On the technique in general: Counterscreens check selectivity or assay interference.
T1 sequence (P98170 whole entry): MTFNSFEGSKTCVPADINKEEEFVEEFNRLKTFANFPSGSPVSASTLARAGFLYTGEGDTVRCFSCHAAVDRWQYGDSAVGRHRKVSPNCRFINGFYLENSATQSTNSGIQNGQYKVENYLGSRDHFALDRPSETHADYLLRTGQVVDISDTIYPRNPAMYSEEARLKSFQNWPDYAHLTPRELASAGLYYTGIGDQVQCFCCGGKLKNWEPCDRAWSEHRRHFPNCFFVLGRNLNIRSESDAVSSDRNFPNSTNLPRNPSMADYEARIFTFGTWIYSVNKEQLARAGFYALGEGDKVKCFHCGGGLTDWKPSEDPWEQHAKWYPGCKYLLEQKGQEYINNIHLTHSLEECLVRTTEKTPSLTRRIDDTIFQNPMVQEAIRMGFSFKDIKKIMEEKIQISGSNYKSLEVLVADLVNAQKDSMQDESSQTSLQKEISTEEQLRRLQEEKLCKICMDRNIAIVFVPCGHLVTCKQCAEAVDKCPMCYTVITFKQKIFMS

Assay [4] concerns the target T1, E3 ubiquitin-protein ligase XIAP. Put plainly: XIAP antagonists, biochemical, IAP family, fluorescence polarization (AID 1018). Format: functional. (Fluorescence polarisation rises when a labelled molecule tumbles more slowly, as on binding a larger partner.)
In assay [5] the target is T2, Leucine aminopeptidase (Plasmodium falciparum 3D7, UniProt Q8IL11).
T2 sequence (Q8IL11 whole entry): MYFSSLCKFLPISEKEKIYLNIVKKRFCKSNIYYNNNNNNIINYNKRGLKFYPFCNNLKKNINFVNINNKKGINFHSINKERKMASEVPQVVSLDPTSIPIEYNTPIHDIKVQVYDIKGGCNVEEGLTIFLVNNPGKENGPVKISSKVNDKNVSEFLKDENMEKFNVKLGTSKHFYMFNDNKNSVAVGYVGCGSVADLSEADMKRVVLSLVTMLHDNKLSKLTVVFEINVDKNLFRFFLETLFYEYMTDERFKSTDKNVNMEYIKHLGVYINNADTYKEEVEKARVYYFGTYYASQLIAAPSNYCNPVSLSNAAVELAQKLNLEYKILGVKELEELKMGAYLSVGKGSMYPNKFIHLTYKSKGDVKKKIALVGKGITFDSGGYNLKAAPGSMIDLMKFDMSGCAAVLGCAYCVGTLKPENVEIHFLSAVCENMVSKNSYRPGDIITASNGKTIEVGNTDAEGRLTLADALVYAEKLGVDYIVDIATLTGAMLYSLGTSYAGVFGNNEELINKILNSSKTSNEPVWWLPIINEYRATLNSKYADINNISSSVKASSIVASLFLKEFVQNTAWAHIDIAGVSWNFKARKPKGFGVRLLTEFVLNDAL
In words: P. falciparum M17LAP inhibitors, primary screen, biochemical, fluorogenic H-Leu-NHMec substrate, 1536-well (AID 1619). The assay is classed as functional.

Assay [6] has as its target T3, Aspartyl aminopeptidase (Plasmodium falciparum 3D7, UniProt Q8I2J3).
T3 sequence (Q8I2J3 whole entry): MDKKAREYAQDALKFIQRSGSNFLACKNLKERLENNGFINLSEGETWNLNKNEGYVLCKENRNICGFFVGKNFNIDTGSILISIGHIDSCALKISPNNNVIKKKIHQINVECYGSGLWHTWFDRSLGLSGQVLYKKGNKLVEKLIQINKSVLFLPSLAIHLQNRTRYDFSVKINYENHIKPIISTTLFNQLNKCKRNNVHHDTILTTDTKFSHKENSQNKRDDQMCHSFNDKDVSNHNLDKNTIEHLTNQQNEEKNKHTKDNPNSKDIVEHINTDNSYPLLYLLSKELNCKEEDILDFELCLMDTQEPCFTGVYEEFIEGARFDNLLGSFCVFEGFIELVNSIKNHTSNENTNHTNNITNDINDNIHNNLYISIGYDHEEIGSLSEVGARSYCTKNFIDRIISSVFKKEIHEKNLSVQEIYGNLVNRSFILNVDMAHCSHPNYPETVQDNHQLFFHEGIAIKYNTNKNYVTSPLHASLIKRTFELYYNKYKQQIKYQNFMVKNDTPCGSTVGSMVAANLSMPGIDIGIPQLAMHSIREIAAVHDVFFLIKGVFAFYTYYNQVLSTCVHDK
In words: Counterscreen for inhibitors of M1 and M17 aminopeptidases: QFRET-based biochemical high throughput dose response assay for inhibitors of the Plasmodium falciparum M18 Aspartyl Aminopeptidase (PFM18AAP). [Related PubChem assays: 1619 (Screening assay (M17LAP inhibitors).), 1445 (Screening assay (M1AAP inhibitors).)].

In assay [7] the target is T4, Protein RecA (Mycobacterium tuberculosis, UniProt P9WHJ3).
T4 sequence (P9WHJ3 whole entry): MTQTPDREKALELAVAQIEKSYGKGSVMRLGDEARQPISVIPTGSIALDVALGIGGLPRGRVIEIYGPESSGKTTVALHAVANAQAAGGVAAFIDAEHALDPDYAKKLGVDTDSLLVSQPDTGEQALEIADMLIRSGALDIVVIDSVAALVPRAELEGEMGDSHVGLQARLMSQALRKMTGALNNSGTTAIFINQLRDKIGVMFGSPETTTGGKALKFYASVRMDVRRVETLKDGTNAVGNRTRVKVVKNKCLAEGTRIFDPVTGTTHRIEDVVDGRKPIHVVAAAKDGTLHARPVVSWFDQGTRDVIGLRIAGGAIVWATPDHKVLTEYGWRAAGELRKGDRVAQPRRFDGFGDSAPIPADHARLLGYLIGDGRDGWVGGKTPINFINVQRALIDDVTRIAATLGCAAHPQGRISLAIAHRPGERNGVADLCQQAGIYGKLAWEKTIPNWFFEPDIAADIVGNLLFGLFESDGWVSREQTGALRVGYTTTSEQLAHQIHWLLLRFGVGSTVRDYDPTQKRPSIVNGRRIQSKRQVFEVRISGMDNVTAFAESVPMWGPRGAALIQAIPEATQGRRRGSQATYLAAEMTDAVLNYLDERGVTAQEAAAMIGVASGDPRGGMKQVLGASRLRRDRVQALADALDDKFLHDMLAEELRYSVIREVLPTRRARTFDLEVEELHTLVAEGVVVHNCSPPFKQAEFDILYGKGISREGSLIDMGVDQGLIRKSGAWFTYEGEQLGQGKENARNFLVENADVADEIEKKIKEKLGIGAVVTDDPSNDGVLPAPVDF
Put plainly: Fluorescence Cell-Free Homogeneous Dose Retest to Identify Inhibitors of RecA-Intein Splicing Activity. [Related pubchem assays (depositor defined):AID2097, AID2223, AID489010, AID492950]. The assay is classed as functional.

Assay [8] concerns the target Procathepsin L (Homo sapiens, UniProt P07711). Put plainly: cathepsin L inhibitors, dose response, counter-screen for M1/M17 aminopeptidase inhibitor project, biochemical, QFRET, 1536-well (AID 2214).
For assay [9], the target named is T5, Replicative DNA helicase DnaB (Mycobacterium tuberculosis, UniProt P9WMR3).
T5 sequence (P9WMR3 whole entry): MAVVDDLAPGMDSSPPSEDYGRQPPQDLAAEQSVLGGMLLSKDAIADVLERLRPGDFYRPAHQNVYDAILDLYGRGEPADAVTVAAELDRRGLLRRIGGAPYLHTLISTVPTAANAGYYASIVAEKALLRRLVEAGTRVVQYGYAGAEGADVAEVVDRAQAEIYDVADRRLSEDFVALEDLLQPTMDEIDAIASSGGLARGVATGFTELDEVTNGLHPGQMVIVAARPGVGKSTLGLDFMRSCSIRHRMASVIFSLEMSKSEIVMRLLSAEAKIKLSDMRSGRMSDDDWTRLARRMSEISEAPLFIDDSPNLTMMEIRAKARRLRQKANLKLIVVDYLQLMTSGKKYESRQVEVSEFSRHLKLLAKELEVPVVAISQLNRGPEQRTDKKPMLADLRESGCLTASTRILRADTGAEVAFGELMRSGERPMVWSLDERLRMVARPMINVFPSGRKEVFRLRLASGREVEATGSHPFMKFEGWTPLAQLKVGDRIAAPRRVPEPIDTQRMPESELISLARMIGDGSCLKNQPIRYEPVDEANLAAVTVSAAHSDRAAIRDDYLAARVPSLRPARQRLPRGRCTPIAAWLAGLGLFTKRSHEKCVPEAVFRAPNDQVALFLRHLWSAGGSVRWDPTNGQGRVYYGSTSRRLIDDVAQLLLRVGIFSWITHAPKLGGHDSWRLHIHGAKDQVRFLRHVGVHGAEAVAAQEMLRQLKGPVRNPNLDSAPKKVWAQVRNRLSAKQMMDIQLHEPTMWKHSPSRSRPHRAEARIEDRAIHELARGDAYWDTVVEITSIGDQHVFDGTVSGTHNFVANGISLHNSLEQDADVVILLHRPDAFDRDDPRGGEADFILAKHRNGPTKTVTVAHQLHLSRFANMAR
In words: DnaB intein splicing inhibitors, dose response, biochemical, cell-free fluorescence (AID 449749). Format: functional.

Assay [10] is described as follows: cytotoxicity toward NIH3T3 fibroblasts, dose response, counter-screen, cell-based, ATP luminescence, mouse fibroblasts (AID 2010).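 Further: cells exposed to compound for about 90 hours before reading.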 Format: functional.
A short description of assay [11]: cells.
A short description of assay [12]: inhibitors of intracellular T. cruzi replication, confirmation, NIH3T3 host cells, beta-gal luminescence (AID 2044).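 Further: intracellular parasites grown in NIH/3T3 mouse fibroblasts as host cells; luminescent beta-galactosidase reporter signal from transgenic T. cruzi replicating inside host cells; inhibitors lower the luminescence signal.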 Format: functional, cell-based.
Assay [13] is described as follows: Luminescent dose response cell-based high throughput screening assay for inhibitors of the Janus kinase 2 mutant JAK2V617F. [Related pubchem assays: 1446 (Primary screen.), 1521 (Confirmation assay.), 1486 (Counter screen.)]. Format: functional.
Assay [14] has as its system Jurkat. In words: antigen receptor-induced NF-kB inhibitors, dose response, Jurkat, luciferase reporter, luminescence, B- and T-cell (AID 489004).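 Further: NF-kB luciferase reporter Jurkat cells stimulated with PMA plus ionomycin.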 The assay is classed as functional, cell-based. The following applies: Homo sapiens. (In a reporter assay the amount or activity of a reporter protein is the signal.)
The nature of assay [15]: cytotoxicity in HEK-293T NF-kB-Luc cells, dose response, cytotoxicity control for B/T-cell NF-kB inhibitor project, cell-based, uHTS hits (AID 489019).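 Further: IC50 reflects cytotoxicity as loss of cell viability.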 The assay is classed as functional.
Assay [16] has as its target Paired box protein Pax-8 (Homo sapiens, UniProt Q06710). In words: inhibitors of PAX8-driven TPO luciferase reporter, dose response, RMG-I cells, cherry-pick (AID 687027).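 Further: luciferase reporter driven by Pax8 target thyroperoxidase promoter measured by SteadyGlo luminescence.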 The assay is classed as functional, cell-based.
For assay [17], the target named is T6, Heat shock factor protein 1 (Mus musculus, UniProt P38532).
T6 sequence (P38532 whole entry): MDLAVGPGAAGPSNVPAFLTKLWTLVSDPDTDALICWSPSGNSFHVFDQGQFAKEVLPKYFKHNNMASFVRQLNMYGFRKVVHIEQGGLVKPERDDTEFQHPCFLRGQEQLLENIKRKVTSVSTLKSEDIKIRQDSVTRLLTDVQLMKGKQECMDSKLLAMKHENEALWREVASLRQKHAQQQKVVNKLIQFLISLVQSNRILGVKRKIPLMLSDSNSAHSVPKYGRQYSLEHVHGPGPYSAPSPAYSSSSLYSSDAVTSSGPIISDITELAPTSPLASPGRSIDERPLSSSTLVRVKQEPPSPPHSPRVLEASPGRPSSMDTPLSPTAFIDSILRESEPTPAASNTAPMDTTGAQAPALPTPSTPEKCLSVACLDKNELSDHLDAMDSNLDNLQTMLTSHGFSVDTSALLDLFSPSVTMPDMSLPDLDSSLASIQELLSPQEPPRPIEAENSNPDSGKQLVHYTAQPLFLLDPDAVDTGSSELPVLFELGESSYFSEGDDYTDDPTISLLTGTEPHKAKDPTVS
Put plainly: inhibition of MG132-induced HSE-luciferase signal, confirmation, cell-based, NIH3T3, luminescence, dose retest (AID 2382).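 Further: NIH3T3 fibroblasts with HSF1-driven luciferase reporter stressed by proteasome inhibitor MG132; luminescence from HSF1-driven luciferase expression after 8 hours of MG132 stress.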 The assay is classed as functional.

A short description of assay [18]: non-specific cell cytotoxicity, dose response, cytotoxicity control for PAX8 inhibitor project, plate reader, dry powder samples (AID 743021). Format: functional, cell-based.
Assay [19] relates to H4. Put plainly: Luminescence Cell-Based Dose Response HTS to Identify Activators of 5'UTR Stem-Loop Driven Prion Protein mRNA Translation in H4 Neuroglioblastoma Cells. [Related pubchem assays: 1829 (Project Summary), 1814 (Primary HTS)]. The following applies: Homo sapiens. The assay is classed as functional.
The nature of assay [20]: Luminescence Cell-Based Dose Response HTS to Identify Activators of Luciferase Translation or Activity in H4 […] Cells. [Related pubchem assays: 1829 (Project Summary), 1814 (Primary HTS)]. Format: functional.
A short description of assay [21]: Luminescence Cell-Based Dose Confirmation to Identify Activators of 5'UTR Stem-Loop Driven Alpha-Synuclein mRNA Translation in H4 Neuroglioblastoma Cells. [Related pubchem assays: 1829 (Project Summary), 1814 (Primary HTS)]. Format: functional.
Assay [22] is described as follows: Luminescence Cell-Based Dose Response to Identify Activators of Luciferase Translation or Activity in H4-C Neuroglioblastoma Cells. [Related pubchem assays: 1829 (Project Summary), 1814 (Primary HTS)]. The assay is classed as functional.
The nature of assay [23]: Luminescence Cell-Based Dose Response to Identify Activators of 5'UTR Stem-Loop Driven Prion Protein mRNA Translation in H4-C Neuroglioblastoma Cells. [Related pubchem assays: 1829 (Project Summary), 1814 (Primary HTS)]. Format: functional.

Chain of Procathepsin L (P07711 whole entry): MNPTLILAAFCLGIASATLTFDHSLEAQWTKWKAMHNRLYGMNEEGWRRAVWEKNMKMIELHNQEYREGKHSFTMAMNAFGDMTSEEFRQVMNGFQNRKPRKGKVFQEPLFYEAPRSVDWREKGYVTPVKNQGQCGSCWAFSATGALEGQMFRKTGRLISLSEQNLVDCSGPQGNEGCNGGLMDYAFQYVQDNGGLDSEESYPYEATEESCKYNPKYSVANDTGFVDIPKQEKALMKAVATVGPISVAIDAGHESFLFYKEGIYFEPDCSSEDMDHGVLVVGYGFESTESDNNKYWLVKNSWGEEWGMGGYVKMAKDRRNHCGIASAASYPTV
Chain of Sphingosine 1-phosphate receptor 2 (O95136 whole entry): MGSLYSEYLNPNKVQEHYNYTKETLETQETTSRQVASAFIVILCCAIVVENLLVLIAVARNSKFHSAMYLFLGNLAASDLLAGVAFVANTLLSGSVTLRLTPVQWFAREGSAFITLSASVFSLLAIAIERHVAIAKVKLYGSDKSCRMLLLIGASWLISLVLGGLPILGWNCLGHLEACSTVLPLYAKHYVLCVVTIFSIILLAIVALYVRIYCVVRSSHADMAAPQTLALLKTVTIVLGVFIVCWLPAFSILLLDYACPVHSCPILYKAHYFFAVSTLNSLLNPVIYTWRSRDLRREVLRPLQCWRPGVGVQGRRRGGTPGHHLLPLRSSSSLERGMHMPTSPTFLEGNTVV
Chain of Paired box protein Pax-8 (Q06710 whole entry): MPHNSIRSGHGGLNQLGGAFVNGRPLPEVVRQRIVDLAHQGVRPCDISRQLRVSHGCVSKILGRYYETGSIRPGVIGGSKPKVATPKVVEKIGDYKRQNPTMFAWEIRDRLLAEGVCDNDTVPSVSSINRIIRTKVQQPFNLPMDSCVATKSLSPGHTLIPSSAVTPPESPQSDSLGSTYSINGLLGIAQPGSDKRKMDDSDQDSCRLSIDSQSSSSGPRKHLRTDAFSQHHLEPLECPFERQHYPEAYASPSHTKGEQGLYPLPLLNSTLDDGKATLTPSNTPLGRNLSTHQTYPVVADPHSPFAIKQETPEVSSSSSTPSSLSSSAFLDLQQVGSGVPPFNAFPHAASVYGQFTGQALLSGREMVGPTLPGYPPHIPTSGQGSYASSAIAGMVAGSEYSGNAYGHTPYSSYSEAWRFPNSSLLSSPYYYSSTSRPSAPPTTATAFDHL

One may read the EC50 as the concentration needed to bring the measured effect to its halfway point. Turning to `Cc1cc(C(=O)CSc2nnnn2C)c(C)n1Cc1ccccc1`, the EC50 in [1] is 30 µM (not active).

The IC50 is the concentration at which inhibition is half-maximal. For the compound `COc1ccccc1OC(=O)c1sc2ccccc2c1Cl`, the IC50 in assay [2] is > 17 µM (not active).

Take `O=C(NC(=S)NC1CC1)c1cccnc1`: the results for the IC50 in assay [3] and in assay [4] were > 100 µM (inactive) and > 100 µM (not active), respectively.

As a reminder, the AC50 is the concentration giving half of the maximal activity seen. Take `COc1ccc(-c2cc(=O)[nH][nH]2)cc1OC`: the IC50 in assay [5] is 7.86 µM (active); in assay [6] it was > 73.5 µM (not active); in [8], > 59.6 µM (not active). Further, the EC50 in assay [7] was 0.38 µM (active). Moreover, in assay [9], the AC50 was 1.01 µM (active).

In the case of `O=C(CCl)/N=c1\sccn1Cc1ccc(Cl)cc1Cl`, the EC50 is 192 nM (active) in assay [10]; < 4 nM (active) in assay [11]; < 100 nM (active) in assay [12]; 15.1 µM (active) in [7]; 361 nM (active) in assay [17]. Further, the IC50 is 235 nM (active) in assay [13], < 160 nM (active) in assay [14] and > 80 µM (inactive) in assay [15]. In addition, the AC50 in assay [16] is 1.36 µM (active); in assay [9], 27.2 µM (active); in assay [18], 2.54 µM (active).

Turning to `CC1(C)CC(=O)/C(=N/Nc2ccc(Cl)cc2)CO1`, the EC50 in assay [19] was < 100 nM (active); in assay [20], 207 nM (active); in assay [21] it was 504 nM (active); in assay [22] it was 324 nM (active); in assay [23] it was 422 nM (active).

For the origin of these results see ChEMBL document CHEMBL1201862, “PubChem BioAssay data set” (2004).
